Assay [1] deals with human CB1 receptor (hCB1) (Homo sapiens, UniProt P21554). Description: cell-based. The assay is classed as cell-based. As to conditions: for +/− HCB1: agonist or inverse agonist at hCB1. The method, boiled down:
(§1)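 Agonism or inverse agonism was assessed as change in intracellular cAMP in CHO-K1 cells expressing human CB1 or rat CB2 (genomic DNA, pcDNA3.1).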

The target of another assay is T1, rat CB2 receptor (rCB2) (Rattus norvegicus, UniProt Q9QZN9).
T1 sequence (Q9QZN9 1-360): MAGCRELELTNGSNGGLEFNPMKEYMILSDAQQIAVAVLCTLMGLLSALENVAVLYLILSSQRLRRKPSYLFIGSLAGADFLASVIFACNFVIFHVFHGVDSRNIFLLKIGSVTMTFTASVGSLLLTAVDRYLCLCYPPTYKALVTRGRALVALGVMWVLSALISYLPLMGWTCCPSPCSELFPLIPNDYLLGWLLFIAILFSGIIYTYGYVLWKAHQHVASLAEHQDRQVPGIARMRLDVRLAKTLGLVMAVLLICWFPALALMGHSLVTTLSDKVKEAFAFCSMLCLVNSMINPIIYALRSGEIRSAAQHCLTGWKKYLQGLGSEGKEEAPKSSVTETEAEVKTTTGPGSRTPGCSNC
Description: cell-based. The assay is classed as cell-based. As to conditions: for +/− RCB2: agonist or inverse agonist at rCB2. The procedure, abridged:
as §1

Where [2] appears, read: groups >100 nM-10 μM and >10 μM, cAMP, CHO-K1 hCB1, read-out: EC50 HCB1.

Where two headings read alike, the source gives them in different places.

Chain of human CB1 receptor (hCB1) (P21554 whole entry): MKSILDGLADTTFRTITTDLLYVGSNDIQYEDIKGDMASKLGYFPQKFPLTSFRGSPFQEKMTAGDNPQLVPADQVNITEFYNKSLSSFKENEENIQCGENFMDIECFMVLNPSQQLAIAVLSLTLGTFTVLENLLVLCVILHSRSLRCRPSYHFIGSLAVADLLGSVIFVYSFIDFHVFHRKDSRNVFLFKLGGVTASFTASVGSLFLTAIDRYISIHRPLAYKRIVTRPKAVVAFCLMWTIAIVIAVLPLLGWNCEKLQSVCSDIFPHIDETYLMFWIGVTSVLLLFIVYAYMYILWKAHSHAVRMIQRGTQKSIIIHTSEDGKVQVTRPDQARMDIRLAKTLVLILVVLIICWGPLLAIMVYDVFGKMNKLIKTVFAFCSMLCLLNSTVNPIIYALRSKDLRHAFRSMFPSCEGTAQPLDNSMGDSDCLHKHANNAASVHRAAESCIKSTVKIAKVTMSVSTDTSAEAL

A word on the EC50: it is the midpoint of the concentration-response curve. Turning to `CNC(=O)[C@@H](NC(=O)c1nc(-c2ccccc2)n2c1CN(C)CC2)C(C)(C)C` [Compound 48, (S)-N-(3,3-dimethyl-1-(methylamino)-1-oxobutan-2-yl)-7-methyl-3-phenyl-5,6,7,8-tetrahydroimidazo[1,5-a]pyrazine-1-carboxamide], in assay [1], the EC50 was more than 10000 nM. Further, at rat CB2 receptor (rCB2), the “+/− RCB2” value is “+”.

In assay [1], `CNC(=O)[C@@H](NC(=O)c1nc(-c2ccccc2)n2c1CN(C(=O)C(C)(C)C)CC2)C(C)(C)C` [Compound 190, (S)-N-(3,3-dimethyl-1-(methylamino)-1-oxobutan-2-yl)-3-phenyl-7-pivaloyl-5,6,7,8-tetrahydroimidazo[1,5-a]pyrazine-1-carboxamide] gave an EC50 of more than 10000 nM. For the same molecule, on rat CB2 receptor (rCB2), the “+/− RCB2” value is on record as “−”.

Turning to `CNC(=O)[C@@H](NC(=O)c1nc(-c2ccc(S(C)(=O)=O)cc2)n2c1CN(C)CCC2)C(C)(C)C` [Compound 379, (S)-N-(3,3-dimethyl-1-(methylamino)-1-oxobutan-2-yl)-8-methyl-3-(4-(methylsulfonyl)phenyl)-6,7,8,9-tetrahydro-5H-imidazo[1,5-a][1,4]diazepine-1-carboxamide], the EC50 (in assay [1]; on rat CB2 receptor (rCB2)) was more than 10000 nM each time.

`CNC(=O)[C@@H](NC(=O)c1nc(C2=CCNCC2)n2c1CN(C)CC2)C(C)(C)C` [Compound 274, (S)-N-(3,3-dimethyl-1-(methylamino)-1-oxobutan-2-yl)-7-methyl-3-(1,2,3,6-tetrahydropyridin-4-yl)-5,6,7,8-tetrahydroimidazo[1,5-a]pyrazine-1-carboxamide]: in assay [1], the “+/− HCB1” value was “+”. Further, at rat CB2 receptor (rCB2), the “+/− RCB2” value is recorded as “−”.

As to `CC(C)CN1CCn2c(-c3ccccc3)nc(C(=O)N[C@@H](C)C(C)(C)C)c2C1` [Compound 53, (S)-N-(3,3-dimethylbutan-2-yl)-7-isobutyl-3-phenyl-5,6,7,8-tetrahydroimidazo[1,5-a]pyrazine-1-carboxamide], the EC50 in assay [1] is more than 10000 nM. Further, the “+/− RCB2” value at rat CB2 receptor (rCB2) is reported as “−”.

The molecule `CC(C)(C)[C@@H](CO)NC(=O)c1nc(-c2ccc(Cl)cc2)n2c1CNCC2` [Compound 43, (S)-3-(4-chlorophenyl)-N-(1-hydroxy-3,3-dimethylbutan-2-yl)-5,6,7,8-tetrahydroimidazo[1,5-a]pyrazine-1-carboxamide] showed an EC50 in assay [1] of more than 10000 nM. In addition, the “+/− RCB2” value at rat CB2 receptor (rCB2) is “−”.

Consider `CNC(=O)[C@@H](NC(=O)c1nc(-c2ccc(C(N)=O)cc2)n2c1CN(C)CCC2)C(C)(C)C` [Compound 423, (S)-3-(4-carbamoylphenyl)-N-(3,3-dimethyl-1-(methylamino)-1-oxobutan-2-yl)-8-methyl-6,7,8,9-tetrahydro-5H-imidazo[1,5-a][1,4]diazepine-1-carboxamide], for which the EC50 (in assay [1]; on rat CB2 receptor (rCB2)) was more than 10000 nM in each case.

As for `CN1CCCn2c(-c3cc(F)c(F)cc3F)nc(C(=O)N[C@H](C(N)=O)C(C)(C)C)c2C1` [Compound 579, (S)-N-(1-amino-3,3-dimethyl-1-oxobutan-2-yl)-8-methyl-3-(2,4,5-trifluorophenyl)-6,7,8,9-tetrahydro-5H-imidazo[1,5-a][1,4]diazepine-1-carboxamide], in assay [1], the “+/− HCB1” value was “+”. Besides, at rat CB2 receptor (rCB2), the “+/− RCB2” value is reported as “+”.

Take `CN1CCCn2c(-c3cc(Cl)c(F)cc3F)nc(C(=O)N[C@@H](CC(C)(C)C)C(N)=O)c2C1` [Compound 591, (S)-N-(1-amino-4,4-dimethyl-1-oxopentan-2-yl)-3-(5-chloro-2,4-difluorophenyl)-8-methyl-6,7,8,9-tetrahydro-5H-imidazo[1,5-a][1,4]diazepine-1-carboxamide]: in assay [1], the “+/− HCB1” value is reported as “+”. Moreover, on rat CB2 receptor (rCB2), the “+/− RCB2” value was “+”.

On to `CCN1CCn2c(-c3ccccc3)nc(C(=O)N[C@H](C)C3CCCCC3)c2C1` [Compound 164, (R)-N-(1-cyclohexylethyl)-7-ethyl-3-phenyl-5,6,7,8-tetrahydroimidazo[1,5-a]pyrazine-1-carboxamide], for which the EC50 in assay [1] is more than 10000 nM. Further, on rat CB2 receptor (rCB2), the “+/− RCB2” value is recorded as “−”.

Regarding `CC(=O)N1CCn2c(-c3ccccc3)nc(C(=O)NN3CCCCC3)c2C1` [Compound 175, 7-acetyl-3-phenyl-N-(piperidin-1-yl)-5,6,7,8-tetrahydroimidazo[1,5-a]pyrazine-1-carboxamide], the EC50 (in assay [1]; on rat CB2 receptor (rCB2)) was more than 10000 nM each time.

Turning to `CNC(=O)[C@H](CC(C)C)NC(=O)c1nc(-c2ccc(C(F)(F)F)cc2F)n2c1CN(C)CCC2` [Compound 533, (S)-3-(2-fluoro-4-(trifluoromethyl)phenyl)-8-methyl-N-(4-methyl-1-(methylamino)-1-oxopentan-2-yl)-6,7,8,9-tetrahydro-5H-imidazo[1,5-a][1,4]diazepine-1-carboxamide], in assay [1], the EC50 is more than 10000 nM. In addition, the “+/− RCB2” value at rat CB2 receptor (rCB2) is reported as “+”.

The molecule `CNC(=O)[C@@H](NC(=O)c1nc(-c2ccccc2)n2c1CNCCC2)C(C)(C)O` [Compound 606, (S)-N-(3-hydroxy-3-methyl-1-(methylamino)-1-oxobutan-2-yl)-3-phenyl-6,7,8,9-tetrahydro-5H-imidazo[1,5-a][1,4]diazepine-1-carboxamide] displayed an EC50 in assay [1] of more than 10000 nM. Moreover, the “+/− RCB2” value at rat CB2 receptor (rCB2) is on record as “+”.

For `CNC(=O)[C@@H](NC(=O)c1nc(-c2ccc(C3CC(=O)NN3)cc2)n2c1CN(C)CCC2)C(C)(C)C` (stereo partly drawn) [Compound 428, N-((S)-3,3-dimethyl-1-(methylamino)-1-oxobutan-2-yl)-8-methyl-3-(4-(5-oxopyrazolidin-3-yl)phenyl)-6,7,8,9-tetrahydro-5H-imidazo[1,5-a][1,4]diazepine-1-carboxamide], the EC50 (in assay [1]; at rat CB2 receptor (rCB2)) was more than 10000 nM each time.

For the molecule `C[C@H](NC(=O)c1nc(-c2ccccc2)n2c1CN(C)CC2)C(C)(C)C` [Compound 51, (S)-N-(3,3-dimethylbutan-2-yl)-7-methyl-3-phenyl-5,6,7,8-tetrahydroimidazo[1,5-a]pyrazine-1-carboxamide], the EC50 in assay [1] (setting [2]) was more than 10000 nM; on rat CB2 receptor (rCB2) (groups >100 nM-10 μM and >10 μM, cAMP, CHO-K1 rCB2, read-out: EC50 RCB2) it was more than 10000 nM.

In assay [1], `CNC(=O)[C@@H](NC(=O)c1nc(Cl)n2c1CN(C)CCC2)C(C)(C)C` [Compound 598, (S)-3-chloro-N-(3,3-dimethyl-1-(methylamino)-1-oxobutan-2-yl)-8-methyl-6,7,8,9-tetrahydro-5H-imidazo[1,5-a][1,4]diazepine-1-carboxamide] yielded an EC50 of more than 10000 nM. Besides, on rat CB2 receptor (rCB2), the “+/− RCB2” value is given as “+”.

Consider `O=C(NC1CCCCC1)c1nc(-c2ccccc2)n2c1CN(CCO)CC2` [Compound 166, N-cyclohexyl-7-(2-hydroxyethyl)-3-phenyl-5,6,7,8-tetrahydroimidazo[1,5-a]pyrazine-1-carboxamide], for which, in assay [1] (setting [2]), the EC50 was more than 10000 nM. Also, the “+/− RCB2” value at rat CB2 receptor (rCB2) is given as “−”.

In turn, `Cc1nnc([C@@H](NC(=O)c2nc(-c3ccccc3)n3c2CN(CC(C)C)CC3)C(C)(C)C)o1` [Compound 202, (S)-N-(2,2-dimethyl-1-(5-methyl-1,3,4-oxadiazol-2-yl)propyl)-7-isobutyl-3-phenyl-5,6,7,8-tetrahydroimidazo[1,5-a]pyrazine-1-carboxamide] returned a 50% effective concentration (EC50) in assay [1] of more than 10000 nM. Besides, the “+/− RCB2” value at rat CB2 receptor (rCB2) is on record as “−”.

For the molecule `CCCCCc1nc(C(=O)N[C@H](C(=O)NC)C(C)(C)C)c2n1CCCN(C)C2` [Compound 484, (S)-N-(3,3-dimethyl-1-(methylamino)-1-oxobutan-2-yl)-8-methyl-3-pentyl-6,7,8,9-tetrahydro-5H-imidazo[1,5-a][1,4]diazepine-1-carboxamide], the EC50 (in assay [1]; on rat CB2 receptor (rCB2)) was more than 10000 nM throughout.

Regarding `CNC(=O)[C@@H](NC(=O)c1nc(C2CCCCCC2)n2c1CN(C)CCC2)C(C)(C)C` [Compound 498, (S)-3-cycloheptyl-N-(3,3-dimethyl-1-(methylamino)-1-oxobutan-2-yl)-8-methyl-6,7,8,9-tetrahydro-5H-imidazo[1,5-a][1,4]diazepine-1-carboxamide], in assay [1], the “+/− HCB1” value is “+”. On rat CB2 receptor (rCB2), the “+/− RCB2” value is on record as “+”.

In turn, `CC(C)CCNC(=O)c1nc(-c2ccc(Cl)cc2)n2c1CN(C(=O)C1CC1)CC2` [Compound 131, 3-(4-chlorophenyl)-7-(cyclopropanecarbonyl)-N-isopentyl-5,6,7,8-tetrahydroimidazo[1,5-a]pyrazine-1-carboxamide] showed an EC50 in assay [1] of more than 10000 nM. Besides, the “+/− RCB2” value at rat CB2 receptor (rCB2) is reported as “−”.

`CN1CCn2c(-c3ccccc3)nc(C(=O)NCC(C)(C)C)c2C1` [Compound 57, 7-methyl-N-neopentyl-3-phenyl-5,6,7,8-tetrahydroimidazo[1,5-a]pyrazine-1-carboxamide]: the EC50 (in assay [1]; on rat CB2 receptor (rCB2)) was more than 10000 nM each time.

Take `CC(C)C[C@H](NC(=O)c1nc(-c2cc(F)c(F)cc2F)n2c1CN(C)CCC2)C(N)=O` [Compound 572, (S)-N-(1-amino-4-methyl-1-oxopentan-2-yl)-8-methyl-3-(2,4,5-trifluorophenyl)-6,7,8,9-tetrahydro-5H-imidazo[1,5-a][1,4]diazepine-1-carboxamide]: the “+/− HCB1” value in assay [1] is “+”. For the same molecule, the “+/− RCB2” value on rat CB2 receptor (rCB2) is recorded as “+”.

Turning to `CNC(=O)[C@@H](NC(=O)c1nc(-c2ccc(C(=O)N3CCOCC3)cc2)n2c1CN(C)CCC2)C(C)(C)C` [Compound 401, (S)-N-(3,3-dimethyl-1-(methylamino)-1-oxobutan-2-yl)-8-methyl-3-(4-(morpholine-4-carbonyl)phenyl)-6,7,8,9-tetrahydro-5H-imidazo[1,5-a][1,4]diazepine-1-carboxamide], the EC50 (in assay [1]; at rat CB2 receptor (rCB2)) was more than 10000 nM throughout.
